Entries after “also recorded” stand apart in the source; their conditions may differ.
Legend:
[1] = test system: human cancer cell lines established from tumors (lung, bladder, testis); experiment: Co-application of cis-platin and DPH to cancer cell lines: DNA adducts by ICA; assay type: cell-based; conditions: cis-platin alone or in combination with DPH
hearing capability = experiment: BAER hearing test after repetitive cis-platin with or without DPH, or DPH alone
Method: Both groups received additional i.p. injections with saline solution (500 µl) in order to protect the mice from kidney injury. […] Like in the clinical BAER tests for humans, the hearing threshold was determined as the disappearance of wave V. This value was converted into percentage of hearing capability as compared to the untreated controls (dB to %). […] The mean value of the untreated mice was set as 100 %.

[2] = test system: outer hair cells and stria vascularis marginal cells; experiment: Electron microscopy of cochlear cell micromorphology; assay type: in vivo, mice; conditions: four times
[3] = test system: K-rasG12D -induced lung tumors; experiment: Tumor growth in the K-ras mouse model of NSCLC (H&E lung sections, Bioquant image analysis); assay type: in vivo, mice; conditions: for tumor number: not statistically significant
Excerpt: (§1) Oncogenic mutations in the gene encoding the small GTPase K-ras are among the most frequently detected alterations in human lung cancer and approximately 30 % of all cases of human non-small cell lung cancer (NSCLC) carry such an activated K-ras allele with mutations predominantly located in codons 12, 13 or 61. Based on this observation a mouse model for NSCLC was recently established (Sweet-Cordero et al., 2004). The local activation of a silent transgenic K-rasG12D allele in these mice is achieved by intratracheal adenoviral transfection with the Cre recombinase (AdCre). The Cre recombinase cuts out a "stop" cassette and allows for expression of the oncogenic K-ras protein in transfected lung cells.
A cohort of tumor-bearing mice was randomly divided into three subgroups receiving different treatment regimens. Group one (mock treatment control) received i.p. injections once per week with PBS for 4 weeks. […] Mice were sacrificed 5 days after the last dose; lungs were dissected and prepared for paraffin sections. Following H&E staining for morphological structures, the percentage tumor burden, the number of tumors per lung and the average tumor size was determined microscopically (Figure 13 B-D, 14). […] For quantitative analysis the Bioquant image analysis software was used to blindly and randomly quantify the area of all lung tumors and the total lung surface area in 4 lung sections per mouse.

[4] = test system: Pt-GG adducts in DNA of lung tumor cells; experiment: ICA of Pt-GG adducts in primary lung tumor cells; assay type: in vivo, mice
Excerpt: as §1, with “cells. When the initiation is performed at the age of 8 weeks, mice are diagnosed 16 weeks later with lung tumors at 100 % penetrance. The morphology and molecular characteristics of the tumors are very similar to human NSCLC and they respond with regression to chemotherapy with cis-platin.” for “cells.”
Mice bearing K-rasG12D -induced lung tumors were divided into two groups for acute high dose and for chronic low dose treatment. Animals received mocktreatment with PBS or cis-platin alone or cis-platin plus treatment with DPH. […] All mice were sacrificed 24 hours after the last treatment and cochleae, kidneys and lungs were resected for analysis of DNA adduct accumulation.

[5] = cis-platin 7 mg/kg once per week for 4 weeks, DPH 57 mg/kg
[6] = cis-platin in combination with DPH (57 mg/kg 30 minutes before each dose)
[7] = cis-platin alone (7 mg/kg once per week for 4 weeks)

SMILES	effect on the formation of DNA adducts (ICA) [1]	hearing ability throughout the experiment (hearing capability; DPH alone 57 mg/kg repetitively, no cis-platin)	hearing sensitivity 24 hours later (hearing capability; DPH alone, single dose 57 mg/kg, BAER repeated 24 hours later)	hearing loss (hearing capability; cis-platin cumulated dose 20 mg/kg in combination with DPH 57 mg/kg 30 minutes before each dose)	mean hearing capability, percentage of untreated controls (hearing capability; cis-platin cumulated dose 40 mg/kg plus DPH 57 mg/kg before each dose)	micromorphology of outer hair cells and marginal cells ([2]; DPH alone 57 mg/kg every second day)	micromorphology of outer hair cells and marginal cells ([2]; cis-platin 5 mg/kg plus DPH 57 mg/kg every second day)	average tumor size, cis-platin alone versus cis-platin plus inhibitor group [3, 5]	mean tumor burden in the lung, cis-platin alone versus in combination with DPH [3, 5]	reduction of average tumor size [3, 6]	reduction of tumor burden [3, 6]	tumor number ([3]; cis-platin plus DPH versus PBS)	reduction of Pt-GG levels in lung tumor cells by DPH co-treatment ([4]; DPH 57 mg/kg 30 minutes prior to cis-platin, acute 10 mg/kg or chronic 4 x 5 mg/kg)	hearing capability, percentage of controls (hearing capability; cis-platin alone 5 mg/kg every second day, cumulated dose 20 mg/kg, BAER 24 h after last treatment)	reduction of hearing capacity (BAER) (hearing capability; cis-platin treatment alone, mice (description))	micromorphology of outer hair cells and marginal cells ([2]; cis-platin alone 5 mg/kg every second day)	reduction of average tumor size [3, 7]	reduction of tumor burden [3, 7]	tumor number ([3]; cis-platin alone versus PBS)	adduct levels in lung tumor cells, repetitive treatment compared to single high dose treatment ([4]; cis-platin 4 x 5 mg/kg every second day versus 10 mg/kg once)
CN(C)CCOC(c1ccccc1)c1ccccc1 [DPH, diphenhydramine]	no inhibitory effect	did not show any difference	regained their normal hearing sensitivity	20%	about 70%	No signs of autophagy or necrosis	much less frequent and properly shaped; also recorded: rare autophagosome-like structures	no difference	no significant difference	about 50%	about 80%	reduced	no reduction							
N.N.[Cl][Pt][Cl] [cis-platin, cis-diaminedichloro-platinum(II)]														about 50%	about 45%	necrotic cell death	about 50%	about 80%	reduced	about two-fold higher
